Assay results published in ChEMBL document CHEMBL4507315 (2021).

Columns and labels:
[1] = test system: Tyrosine-protein kinase ABL1 (Homo sapiens), P00519 [F317I]; settings: Compound concentration 100.0 nM
[2] = biological target: Activin receptor type-1B (Homo sapiens) (UniProt P36896); settings: Compound concentration 100.0 nM
[3] = biological target: Atypical kinase COQ8A, mitochondrial (Homo sapiens) (UniProt Q8NI60); settings: Compound concentration 100.0 nM
[4] = biological target: 5'-AMP-activated protein kinase catalytic subunit alpha-2 (Homo sapiens) (UniProt P54646); settings: Compound concentration 100.0 nM
[5] = biological target: Serine/threonine-protein kinase BRSK1 (Homo sapiens) (UniProt Q8TDC3); settings: Compound concentration 100.0 nM
[6] = biological target: Peripheral plasma membrane protein CASK (Homo sapiens) (UniProt O14936); settings: Compound concentration 100.0 nM
[7] = biological target: Cyclin-dependent kinase-like 2 (Homo sapiens) (UniProt Q92772); settings: Compound concentration 100.0 nM
Cyclin-dependent kinase-like 2 (Homo sapiens), sequence (Q92772 whole entry): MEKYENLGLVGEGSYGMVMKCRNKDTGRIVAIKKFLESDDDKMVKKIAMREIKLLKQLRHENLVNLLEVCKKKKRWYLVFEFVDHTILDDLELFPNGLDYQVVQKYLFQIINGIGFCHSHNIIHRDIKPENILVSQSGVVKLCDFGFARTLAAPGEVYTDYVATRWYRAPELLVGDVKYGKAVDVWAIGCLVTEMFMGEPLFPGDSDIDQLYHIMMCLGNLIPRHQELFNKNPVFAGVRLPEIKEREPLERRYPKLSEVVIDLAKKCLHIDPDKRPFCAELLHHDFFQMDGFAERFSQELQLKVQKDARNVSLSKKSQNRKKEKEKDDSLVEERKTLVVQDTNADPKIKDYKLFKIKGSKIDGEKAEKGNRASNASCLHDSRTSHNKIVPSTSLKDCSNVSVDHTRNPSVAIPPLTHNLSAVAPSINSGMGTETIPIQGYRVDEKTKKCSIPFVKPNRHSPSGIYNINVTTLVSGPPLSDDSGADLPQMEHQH

[8] = biological target: Serine/threonine-protein kinase Chk1 (Homo sapiens) (UniProt O14757); settings: Compound concentration 100.0 nM
[9] = biological target: Dual specificity protein kinase CLK4 (Homo sapiens) (UniProt Q9HAZ1); settings: Compound concentration 100.0 nM
[10] = biological target: Death-associated protein kinase 3 (Homo sapiens) (UniProt O43293); settings: Compound concentration 100.0 nM
Death-associated protein kinase 3 (Homo sapiens), sequence (O43293 whole entry, looked up): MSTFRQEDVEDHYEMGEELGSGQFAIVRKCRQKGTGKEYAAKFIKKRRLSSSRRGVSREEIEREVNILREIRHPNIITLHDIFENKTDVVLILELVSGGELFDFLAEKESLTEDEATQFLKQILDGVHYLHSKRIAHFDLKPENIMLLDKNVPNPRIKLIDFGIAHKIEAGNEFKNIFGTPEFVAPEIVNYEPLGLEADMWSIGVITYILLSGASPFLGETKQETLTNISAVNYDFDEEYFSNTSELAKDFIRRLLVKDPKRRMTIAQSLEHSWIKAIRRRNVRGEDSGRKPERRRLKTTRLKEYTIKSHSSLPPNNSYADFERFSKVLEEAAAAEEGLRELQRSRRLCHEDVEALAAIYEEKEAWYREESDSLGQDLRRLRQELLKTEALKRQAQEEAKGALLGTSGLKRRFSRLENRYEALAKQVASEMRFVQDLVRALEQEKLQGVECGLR

[11] = biological target: Serine/threonine-protein kinase DCLK3 (Homo sapiens) (UniProt Q9C098); settings: Compound concentration 100.0 nM
[12] = test system: Epidermal growth factor receptor (Homo sapiens), P00533 [G719C]; settings: Compound concentration 100.0 nM
[13] = test system: Epidermal growth factor receptor (Homo sapiens), P00533 [L858R,T790M]; settings: Compound concentration 100.0 nM
[14] = biological target: Mitogen-activated protein kinase 1 (Homo sapiens) (UniProt P28482); settings: Compound concentration 100.0 nM
[15] = biological target: Receptor-type tyrosine-protein kinase FLT3 (Homo sapiens) (UniProt P36888); settings: Compound concentration 100.0 nM
[16] = biological target: Rhodopsin kinase GRK7 (Homo sapiens) (UniProt Q8WTQ7); settings: Compound concentration 100.0 nM
[17] = biological target: Homeodomain-interacting protein kinase 1 (Homo sapiens) (UniProt Q86Z02); settings: Compound concentration 100.0 nM
[18] = biological target: Hormonally up-regulated neu tumor-associated kinase (Homo sapiens) (UniProt P57058); settings: Compound concentration 100.0 nM
[19] = biological target: Insulin-like growth factor 1 receptor (Homo sapiens) (UniProt P08069); settings: Compound concentration 100.0 nM
Insulin-like growth factor 1 receptor (Homo sapiens), sequence (P08069 31-736 limits assumed): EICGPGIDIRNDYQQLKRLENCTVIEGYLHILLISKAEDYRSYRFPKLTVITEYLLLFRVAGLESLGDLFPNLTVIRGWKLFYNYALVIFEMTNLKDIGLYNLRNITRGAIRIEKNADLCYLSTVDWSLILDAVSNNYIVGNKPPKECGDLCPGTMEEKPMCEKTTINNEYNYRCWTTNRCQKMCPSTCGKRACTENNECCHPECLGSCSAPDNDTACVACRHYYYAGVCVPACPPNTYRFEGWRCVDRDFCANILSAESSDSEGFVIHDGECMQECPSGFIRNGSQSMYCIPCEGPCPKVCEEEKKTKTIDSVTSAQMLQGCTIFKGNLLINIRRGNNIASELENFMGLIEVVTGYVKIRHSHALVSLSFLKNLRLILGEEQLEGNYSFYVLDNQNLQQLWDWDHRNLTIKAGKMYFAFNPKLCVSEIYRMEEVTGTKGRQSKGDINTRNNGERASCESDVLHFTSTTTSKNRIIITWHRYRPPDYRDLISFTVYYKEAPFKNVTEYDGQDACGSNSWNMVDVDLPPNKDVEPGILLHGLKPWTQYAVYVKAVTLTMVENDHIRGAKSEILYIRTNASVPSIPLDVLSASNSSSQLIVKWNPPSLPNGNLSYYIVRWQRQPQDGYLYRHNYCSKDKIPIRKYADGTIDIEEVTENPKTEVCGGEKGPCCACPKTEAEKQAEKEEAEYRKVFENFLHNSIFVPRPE
Insulin-like growth factor 1 receptor (Homo sapiens), sequence (P08069 741-1367 limits assumed): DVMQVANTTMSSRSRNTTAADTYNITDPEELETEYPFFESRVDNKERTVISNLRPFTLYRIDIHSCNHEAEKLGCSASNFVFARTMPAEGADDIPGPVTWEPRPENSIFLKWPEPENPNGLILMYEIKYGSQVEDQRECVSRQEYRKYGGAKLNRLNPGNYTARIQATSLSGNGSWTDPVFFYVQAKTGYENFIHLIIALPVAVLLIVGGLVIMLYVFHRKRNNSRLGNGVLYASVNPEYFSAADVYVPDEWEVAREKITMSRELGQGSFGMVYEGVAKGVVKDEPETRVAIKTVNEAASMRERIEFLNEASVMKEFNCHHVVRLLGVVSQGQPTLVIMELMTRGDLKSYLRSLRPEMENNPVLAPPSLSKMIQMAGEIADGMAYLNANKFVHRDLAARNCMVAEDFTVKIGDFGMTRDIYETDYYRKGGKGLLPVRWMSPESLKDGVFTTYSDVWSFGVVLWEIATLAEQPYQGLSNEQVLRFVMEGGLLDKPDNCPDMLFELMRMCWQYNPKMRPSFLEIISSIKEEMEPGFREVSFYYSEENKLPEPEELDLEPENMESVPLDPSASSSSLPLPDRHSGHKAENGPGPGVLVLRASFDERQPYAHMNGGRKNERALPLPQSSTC

[20] = biological target: Tyrosine-protein kinase JAK2 (Homo sapiens) (UniProt O60674); settings: Compound concentration 100.0 nM
Tyrosine-protein kinase JAK2 (Homo sapiens), sequence (O60674 whole entry): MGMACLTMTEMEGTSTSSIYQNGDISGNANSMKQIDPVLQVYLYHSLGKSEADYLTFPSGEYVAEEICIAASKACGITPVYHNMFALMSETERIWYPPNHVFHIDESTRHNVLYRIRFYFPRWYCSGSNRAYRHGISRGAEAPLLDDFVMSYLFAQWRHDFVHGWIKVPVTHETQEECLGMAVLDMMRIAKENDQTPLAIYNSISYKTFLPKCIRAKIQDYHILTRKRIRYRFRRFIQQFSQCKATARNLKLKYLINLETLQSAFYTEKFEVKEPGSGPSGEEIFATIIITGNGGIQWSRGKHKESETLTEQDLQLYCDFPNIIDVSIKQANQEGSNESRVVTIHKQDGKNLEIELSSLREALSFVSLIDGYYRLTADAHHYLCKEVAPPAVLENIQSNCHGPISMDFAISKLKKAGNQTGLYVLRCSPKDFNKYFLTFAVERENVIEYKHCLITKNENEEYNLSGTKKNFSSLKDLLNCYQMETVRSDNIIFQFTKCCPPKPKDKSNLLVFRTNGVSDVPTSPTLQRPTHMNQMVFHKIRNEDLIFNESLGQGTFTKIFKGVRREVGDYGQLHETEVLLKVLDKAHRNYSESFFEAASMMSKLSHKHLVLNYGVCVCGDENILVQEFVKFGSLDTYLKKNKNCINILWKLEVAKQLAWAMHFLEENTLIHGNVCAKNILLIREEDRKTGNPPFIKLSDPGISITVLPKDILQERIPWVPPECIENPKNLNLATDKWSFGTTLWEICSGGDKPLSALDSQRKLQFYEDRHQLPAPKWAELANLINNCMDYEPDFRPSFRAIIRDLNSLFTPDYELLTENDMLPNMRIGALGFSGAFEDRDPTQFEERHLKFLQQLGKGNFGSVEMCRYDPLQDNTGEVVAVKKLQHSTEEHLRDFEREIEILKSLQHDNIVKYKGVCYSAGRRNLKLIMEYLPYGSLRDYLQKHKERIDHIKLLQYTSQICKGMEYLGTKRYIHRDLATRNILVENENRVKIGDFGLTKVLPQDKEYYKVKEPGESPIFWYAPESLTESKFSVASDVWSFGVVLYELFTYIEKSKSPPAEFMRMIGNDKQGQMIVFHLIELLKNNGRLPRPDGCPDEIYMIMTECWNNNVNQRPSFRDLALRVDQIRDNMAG

[21] = biological target: Mitogen-activated protein kinase 9 (Homo sapiens) (UniProt P45984); settings: Compound concentration 100.0 nM
[22] = test system: Mast/stem cell growth factor receptor Kit (Homo sapiens), P10721 [D816V]; settings: Compound concentration 100.0 nM
[23] = test system: Mast/stem cell growth factor receptor Kit (Homo sapiens), P10721 [V559D,T670I]; settings: Compound concentration 100.0 nM
[24] = biological target: LIM domain kinase 1 (Homo sapiens) (UniProt P53667); settings: Compound concentration 100.0 nM
[25] = biological target: Serine/threonine-protein kinase STK11 (Homo sapiens) (UniProt Q15831); settings: Compound concentration 100.0 nM
Serine/threonine-protein kinase STK11 (Homo sapiens), sequence (Q15831 whole entry): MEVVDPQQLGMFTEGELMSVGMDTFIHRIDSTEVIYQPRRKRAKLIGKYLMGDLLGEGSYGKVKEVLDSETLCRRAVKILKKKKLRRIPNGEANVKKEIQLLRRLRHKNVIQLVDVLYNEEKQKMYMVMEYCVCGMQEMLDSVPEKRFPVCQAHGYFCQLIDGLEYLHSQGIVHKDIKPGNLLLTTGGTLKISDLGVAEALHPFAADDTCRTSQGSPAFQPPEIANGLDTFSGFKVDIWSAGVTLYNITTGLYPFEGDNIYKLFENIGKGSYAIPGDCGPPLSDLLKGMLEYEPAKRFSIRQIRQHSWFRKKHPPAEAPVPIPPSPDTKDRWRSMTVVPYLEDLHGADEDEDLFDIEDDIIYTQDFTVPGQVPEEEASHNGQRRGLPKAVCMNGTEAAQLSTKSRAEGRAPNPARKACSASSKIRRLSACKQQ

[26] = test system: Leucine-rich repeat serine/threonine-protein kinase 2 (Homo sapiens), Q5S007 [G2019S]; settings: Compound concentration 100.0 nM
[27] = biological target: Dual specificity mitogen-activated protein kinase kinase 1 (Homo sapiens) (UniProt Q02750); settings: Compound concentration 100.0 nM
[28] = biological target: Serine/threonine-protein kinase Nek6 (Homo sapiens) (UniProt Q9HC98); settings: Compound concentration 100.0 nM
[29] = biological target: Serine/threonine-protein kinase OSR1 (Homo sapiens) (UniProt O95747); settings: Compound concentration 100.0 nM
[30] = biological target: Serine/threonine-protein kinase PAK 2 (Homo sapiens) (UniProt Q13177); settings: Compound concentration 100.0 nM
Serine/threonine-protein kinase PAK 2 (Homo sapiens), sequence (Q13177 whole entry): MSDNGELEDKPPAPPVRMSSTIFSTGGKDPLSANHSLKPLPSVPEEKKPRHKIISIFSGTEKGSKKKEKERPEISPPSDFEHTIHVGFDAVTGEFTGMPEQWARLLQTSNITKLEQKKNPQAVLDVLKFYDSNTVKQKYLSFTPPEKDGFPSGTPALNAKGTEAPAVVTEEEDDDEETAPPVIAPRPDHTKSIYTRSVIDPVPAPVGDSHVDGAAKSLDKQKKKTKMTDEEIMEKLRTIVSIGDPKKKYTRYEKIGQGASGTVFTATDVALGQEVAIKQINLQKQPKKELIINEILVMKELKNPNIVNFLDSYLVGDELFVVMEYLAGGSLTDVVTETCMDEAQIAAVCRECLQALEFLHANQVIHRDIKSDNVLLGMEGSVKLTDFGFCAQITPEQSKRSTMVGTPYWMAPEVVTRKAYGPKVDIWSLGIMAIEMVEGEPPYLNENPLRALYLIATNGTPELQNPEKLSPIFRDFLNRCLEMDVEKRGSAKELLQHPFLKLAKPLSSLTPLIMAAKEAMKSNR

[31] = biological target: Calcium-dependent protein kinase 1 (Plasmodium falciparum) (UniProt P62344); settings: Compound concentration 100.0 nM
[32] = biological target: Phosphatidylinositol 4,5-bisphosphate 3-kinase catalytic subunit gamma isoform (Homo sapiens) (UniProt P48736); settings: Compound concentration 100.0 nM
[33] = biological target: Serine/threonine-protein kinase PknB (Mycobacterium tuberculosis) (UniProt P9WI81); settings: Compound concentration 100.0 nM
[34] = biological target: Serine/threonine-protein kinase D2 (Homo sapiens) (UniProt Q9BZL6); settings: Compound concentration 100.0 nM
[35] = biological target: cAMP-dependent protein kinase catalytic subunit PRKX (Homo sapiens) (UniProt P51817); settings: Compound concentration 100.0 nM
[36] = test system: Proto-oncogene tyrosine-protein kinase receptor Ret (Homo sapiens), P07949 [V804M]; settings: Compound concentration 100.0 nM
[37] = biological target: Serine/threonine-protein kinase Sgk1 (Homo sapiens) (UniProt O00141); settings: Compound concentration 100.0 nM
[38] = biological target: Activated CDC42 kinase 1 (Homo sapiens) (UniProt Q07912); settings: Compound concentration 100.0 nM
[39] = biological target: Serine/threonine-protein kinase ULK2 (Homo sapiens) (UniProt Q8IYT8); settings: Compound concentration 100.0 nM
[40] = biological target: Phosphatidylinositol 3-kinase catalytic subunit type 3 (Homo sapiens) (UniProt Q8NEB9); settings: Compound concentration 100.0 nM
[41] = biological target: Wee1-like protein kinase 2 (Homo sapiens) (UniProt P0C1S8); settings: Compound concentration 100.0 nM
[42] = biological target: Serine/threonine-protein kinase WNK2 (Homo sapiens) (UniProt Q9Y3S1); settings: Compound concentration 100.0 nM
[43] = biological target: 5-hydroxytryptamine receptor 2A (Homo sapiens) (UniProt P28223); settings: Compound concentration 10.0 uM
[44] = biological target: 5-hydroxytryptamine receptor 2C (Homo sapiens) (UniProt P28335); settings: Compound concentration 10.0 uM
[45] = biological target: D(3) dopamine receptor (Homo sapiens) (UniProt P35462); settings: Compound concentration 10.0 uM

Activin receptor type-1B (Homo sapiens), sequence (P36896 whole entry): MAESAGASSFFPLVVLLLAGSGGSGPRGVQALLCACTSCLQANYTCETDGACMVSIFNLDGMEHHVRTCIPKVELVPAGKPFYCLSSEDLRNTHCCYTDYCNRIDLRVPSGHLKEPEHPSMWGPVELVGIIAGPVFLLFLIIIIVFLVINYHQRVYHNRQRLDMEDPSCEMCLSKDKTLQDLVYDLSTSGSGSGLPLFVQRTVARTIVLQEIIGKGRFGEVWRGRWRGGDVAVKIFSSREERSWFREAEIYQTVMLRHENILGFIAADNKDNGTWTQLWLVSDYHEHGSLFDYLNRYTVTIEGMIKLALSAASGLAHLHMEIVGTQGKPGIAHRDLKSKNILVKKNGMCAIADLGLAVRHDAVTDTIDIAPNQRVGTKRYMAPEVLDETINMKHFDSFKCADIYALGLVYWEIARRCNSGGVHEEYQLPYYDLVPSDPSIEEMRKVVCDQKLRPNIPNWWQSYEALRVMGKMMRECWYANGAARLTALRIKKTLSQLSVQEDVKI

Nc1c(C(=O)NCc2ccc(C(=O)NCCCC3CCCCC3)cc2)cnn1-c1ccccc1 [SR-318]
inactive: residual activity [1] 100% | residual activity [2] 100% | residual activity [3] 100% | residual activity [4] 100% | residual activity [5] 94% | residual activity [6] 78% | residual activity [7] 93% | residual activity [8] 100% | residual activity [9] 96% | residual activity [10] 100% | residual activity [11] 100% | residual activity [12] 85% | residual activity [13] 96% | residual activity [14] 100% | residual activity [15] 90% | residual activity [16] 100% | residual activity [17] 100% | residual activity [18] 100% | residual activity [19] 98% | residual activity [20] 100% | residual activity [21] 100% | residual activity [22] 100% | residual activity [23] 98% | residual activity [24] 100% | residual activity [25] 100% | residual activity [26] 100% | residual activity [27] 100% | residual activity [28] 100% | residual activity [29] 100% | residual activity [30] 66% | residual activity [31] 86% | residual activity [32] 100% | residual activity [33] 100% | residual activity [34] 100% | residual activity [35] 87% | residual activity [36] 98% | residual activity [37] 100% | residual activity [38] 89% | residual activity [39] 100% | residual activity [40] 99% | residual activity [41] 100% | residual activity [42] 100% | inhibition [43] 23.7% | inhibition [44] 10% | inhibition [45] 21.2%

O=C(NCCCC1CCCCC1)c1ccc(CNC(=O)c2cnn(-c3ccccc3)c2C(F)(F)F)cc1 [SR-321]
inactive: residual activity [1] 100% | residual activity [2] 100% | residual activity [3] 100% | residual activity [4] 100% | residual activity [5] 100% | residual activity [6] 100% | residual activity [7] 100% | residual activity [8] 100% | residual activity [9] 100% | residual activity [10] 92% | residual activity [11] 100% | residual activity [12] 96% | residual activity [13] 95% | residual activity [14] 93% | residual activity [15] 87% | residual activity [16] 100% | residual activity [17] 99% | residual activity [18] 100% | residual activity [19] 100% | residual activity [20] 100% | residual activity [21] 85% | residual activity [22] 100% | residual activity [23] 100% | residual activity [24] 100% | residual activity [25] 100% | residual activity [26] 100% | residual activity [27] 89% | residual activity [28] 83% | residual activity [29] 91% | residual activity [30] 100% | residual activity [31] 100% | residual activity [32] 95% | residual activity [33] 100% | residual activity [34] 100% | residual activity [35] 100% | residual activity [36] 100% | residual activity [37] 100% | residual activity [38] 100% | residual activity [39] 100% | residual activity [40] 100% | residual activity [41] 100% | residual activity [42] 100% | inhibition [43] 8.57% | inhibition [44] 6.21% | inhibition [45] 2.65%
